Columns and labels:
[1] = molecular target: T1, enkephalinase (Rattus norvegicus, UniProt P07861); assay: in vitro inhibition of enkephalinase (3H-Tyr-gly-gly generation from 3H-Leu-enkephalin, synaptic membranes from rat striatum); format: biochemical; settings: rat striatum synaptic membrane preparation, pH 6-5, 15 minutes at 30° C., 10^-6 M Bestatin
T1 construct: synaptic membrane preparation from rat striatum; from tissue; host or cells: rat striatum, synaptic membrane preparation
T1 sequence (P07861 1-750): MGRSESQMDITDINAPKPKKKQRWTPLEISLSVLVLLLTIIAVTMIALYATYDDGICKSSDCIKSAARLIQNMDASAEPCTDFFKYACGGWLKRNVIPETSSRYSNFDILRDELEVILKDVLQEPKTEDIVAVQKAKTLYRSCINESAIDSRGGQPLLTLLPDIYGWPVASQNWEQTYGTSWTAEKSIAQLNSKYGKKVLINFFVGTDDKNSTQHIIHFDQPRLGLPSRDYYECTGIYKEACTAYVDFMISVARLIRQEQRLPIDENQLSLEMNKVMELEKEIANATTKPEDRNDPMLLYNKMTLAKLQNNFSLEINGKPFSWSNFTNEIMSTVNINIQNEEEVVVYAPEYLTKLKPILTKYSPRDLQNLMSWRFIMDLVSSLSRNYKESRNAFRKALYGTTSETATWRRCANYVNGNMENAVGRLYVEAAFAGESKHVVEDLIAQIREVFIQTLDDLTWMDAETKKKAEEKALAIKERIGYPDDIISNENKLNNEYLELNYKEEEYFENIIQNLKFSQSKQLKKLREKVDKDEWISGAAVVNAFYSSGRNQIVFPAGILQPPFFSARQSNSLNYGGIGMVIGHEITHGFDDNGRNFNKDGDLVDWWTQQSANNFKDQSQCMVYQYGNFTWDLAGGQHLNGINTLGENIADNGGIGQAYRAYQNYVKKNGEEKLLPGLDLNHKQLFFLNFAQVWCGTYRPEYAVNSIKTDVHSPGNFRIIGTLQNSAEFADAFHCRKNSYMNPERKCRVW
Protocol: The enkephalinane inhibitory activity is determined in vitro by an adaptation of the method of Alstein et al. as described in Life Sciences 28, 185 (1981), as follows:
A mixture of a solution of the test compound in distilled water or distilled water and ethanol diluted with pH 6-5 buffer and of a synaptic membrane preparation from rat striatum is incubated at pH 6-5 with ^3 H-Leu-enkephalin for 15 minutes at 30° C., in the presence of 10^-6 M Bestatin (to inhibit aminopeptidase activity). The reaction is stopped by the addition of 30% acetic acid and the reaction product ^3 H-Tyr-gly-gly is separated from unreacted ^3 H-Leu-enkephalin on a Porapak O column followed by a Cu^++ -chelex column. The ^3 H-Tyr-gly-gly is counted by liquid scintillation. The amount of ^3 H-Tyr-gly-gly generated in the presence of test compound as compared to control is then calculated. An IC50 value representing the concentration of test compound required for 50% inhibition of ^3 H-Tyr-gly-gly generation is then determined graphically.

[2] = hot plate test for analgesia in the mouse (mean response latency); format: in vivo; settings: for dose that increases the mean response latency in the hot plate test: mice, intracerebroventricular administration
Description: The analgesic activity is demonstrable by potentiation of the analgesic effects of enkephalin and derivatives thereof, and by classical analgesic tests, such as the phenyl-p-benzoquinone induced writing test [J. Pharmacol. Exp. Therap. 125, 237 (1959)] and the hot plate test in the mouse [J. Pharmaol. Exp. Therap. 107, 385 (1953)].
The analgesic activity can be measured by the hot-plate test method in the mouse as follows and essentially as described in J. Pharmacol. Exp. Therap. 107, 385 (1953).
The compound is administered intravenously or intracerebroventricularly 15 minutes prior to the measurement of the response latency. Male CF, (Charles River) mice (20 g) are allowed food and water ad libitum up to the time of testing. The hot plate test for analgesia utilizes an apparatus with an electrically heated, thermostatically controlled copper plate (Analgesia Meter). A Plexiglas cylinder, 25.5 cm×16 cm (inner diameter) and open at both ends, confines the mice to the central area of the hot plate. The surface temperature is maintained at 55°±0.5° C. Response latency is recorded as the time (seconds) from contact with the hot plate until a jump occurs or at 240 seconds if no response occurs within this time. Animals are individually tested at 15 minutes following intravenous or intracerebroventricular (ICV) injection. Intracerebroventricular injections into the lateral ventricle are carried out according to the method of Haley and McCormick, as described in Brit. J. Pharmacol. 12; 12, 1957.
The mean response latency and standard error are calculated. Significance is determined using Student's unpaired t-test, 2-tailed comparison.

[3] = tested on: enkephalinase; assay: in vivo potentiation of the analgesic effect of met-enkephalin (enkephalinase inhibitory activity in vivo); design: species or system mouse; settings: met-enkephalin (20 ug), intracerebroventricular administration
Protocol: (§1) The enkephalinase inhibitory activity can be determined in vivo, e.g. by measuring the potentiation of the analgesic activity of intracerebrally administered D-Ala^2 -met^5 -enkephalinamide or met-enkephalin in mice. The enkephalinase inhibitory activity is also determined in vivo by measuring the increase in endogenous brain enkephalin levels, or by direct measurement of striatum enkephalinase activity in mice.

[4] = tested on: enkephalinase; assay: in vivo potentiation of the analgesic effect of D-Ala^2-Met^5-enkephalinamide (enkephalinase inhibitory activity in vivo); design: species or system mouse; settings: s.c.
Protocol: as §1

| IC50 [1] | Compound | dose that increases the mean response latency in the hot plate test [2] | further results |
| --- | --- | --- | --- |
| ~20 nM | O=C(O)CCCNC(=O)[C@@H](Cc1ccccc1)C[C@H](Cc1ccccc1)C(=O)O (relative stereo) [N-[(R*,R*)-2,4-dibenzyl-4-carboxybutyryl]-4-aminobutyric acid] | about 0.1 ug | – |
| ~20 nM | O=C(O)CCNC(=O)[C@@H](Cc1ccccc1)C[C@H](Cc1ccccc1)C(=O)O (relative stereo) [N-[(R*,R*)-2,4-dibenzyl-4-carboxybutyryl]-3-aminopropionic acid] | – | – |

The next lines start with the compound.

| Compound | IC50 [1] | dose that increases the mean response latency in the hot plate test [2] | further results |
| --- | --- | --- | --- |
| O=C(O)CCNC(=O)[C@H](Cc1ccccc1)C[C@@H](Cc1ccccc1)C(=O)O [N-(2S,4S-dibenzyl-4-carboxybutyryl)-3-aminopropionic acid] | ~8 nM | – | – |
| CCOC(=O)[C@@H](Cc1ccccc1)C[C@H](Cc1ccccc1)C(=O)NCCC(=O)O (relative stereo) [N-[4-ethoxycarbonyl-(R*,R*)-2,4-dibenzylbutyryl]-3-aminopropionic acid] | – | ~0.03 µg | dose that potentiates the analgesic effect of met-enkephalin [3]: about 0.01 ug |
| CC1(C)O[C@H]2O[C@H]([C@H]3COC(C)(C)O3)[C@H](OC(=O)CCNC(=O)[C@H](Cc3ccccc3)C[C@@H](Cc3ccccc3)C(=O)O)[C@H]2O1 [Example 17/10, 1,2:5,6-di-O-isopropylidene-D-glucofuranos-3-yl N-(2S,4S-dibenzyl-4-carboxybutyryl)-3-aminopropionate] | – | – | minimal effective dose ([2]; iv, 0.25 h, mouse, effective at the dose "and lower"): ≤ 30 mg/kg |
| CC1(C)O[C@@H]2[C@@H](COC(=O)CCNC(=O)[C@H](Cc3ccccc3)C[C@@H](Cc3ccccc3)C(=O)O)OC(=O)[C@@H]2O1 [17/6, 2,3-O-isopropylidene-D-ribono-(1,4-lactone)-5-yl N-(2S,4S-dibenzyl-4-carboxybutyryl)-3-aminopropionate] | – | – | dose that potentiates the analgesic effect of D-Ala^2-Met^5-enkephalinamide [4]: 30 mg/kg |
